{"source": "patent US20130210901A1", "about": "“METHOD OF TREATING NEURODEGENERATIVE DISEASES” (Yissum Research Development Company of the Hebrew …, priority 2010, published 2013)", "key": {"miR-211": {"system": "miR-211", "test": "Antisense blockage of miR-211 in cultured N9 cells, hnRNP A/B levels", "format": "cell-based"}, "hnRNP A/B": {"system": "hnRNP A/B", "test": "hnRNP A/B expression in primary neuronal cultures incubated with cholinergic agonist", "format": "cell-based, mouse", "conditions": "10 μM, 48 hours", "description": "Primary mixed cortical cultures: Primary mouse cultures of neurons and glia were produced from E16 embryos. Pregnant mice were anesthetized with isoflurane and sacrificed by cervical dislocation. The uterus was removed and placed on ice. After 5 minutes the heads were dissected under binocular and cortices were removed, placed in cold DMEM, and triturated with a scalpel and up and down pippeting. The medium was replaced with neurobasal medium supplemented with 1:50 B27, 2 mM L-Glutamine (Invitrogen, Grand Island, N.Y.), 50 U penicillin and 50 μg/ml streptomycin (Biological Industries, Beit-haemek, Israel), cells were counted and plated in 12 or 24-well plated pre-treated with 10 μg/ml poly-lysine (Sigma, St. Louis). For confocal microscopy cells were plated on glass cover slips similarly treated.\nImmunohistochemistry and immunofluorescence: Paraffin slides were rehydrated by washing in xylene and serial dilutions of ethanol in water. Heat-induced antigen retrieval involved boiling slides in 10 mM pH 6 citrate buffer for 10 minutes. Hydrogen peroxide methanol quench was performed for slides later developed with 3,3′-Diaminobenzidine tetrahydrochloride (DAB). […]"}, "miRNA-132": {"system": "miRNA-132", "test": "miRNA expression in temporal cortex 48 hours after muscarinic agonist injection (RT-PCR)", "format": "in vivo, mouse", "conditions": "48 hours after injections", "description": "(§1) β-actin and GAPDH were used as reference transcripts. Annealing temperature was 60° C. for all primers. Serial dilution of samples served to evaluate primers efficiency and the appropriate cDNA concentration that yields linear changes. -RT controls verified lack of genomic DNA. miRNA quantification using The TaqMan miRNA Assays (Applied Biosystems) was conducted in two-step RT-PCR kit according to the manufacturer's instructions."}, "miRNA-211": {"system": "miRNA-211", "test": "miRNA expression in temporal cortex 48 hours after muscarinic agonist injection (RT-PCR)", "format": "in vivo, mouse", "conditions": "48 hours after injections", "description": "as §1"}}, "note": "Like-named read-outs stand apart in the source and are kept apart here."}
{"molecule": "Antisense oligonucleotides to miR-211: locked nucleic acid oligonucleotide complementary to miR-211; miR211 antagonist e.g. SEQ ID NO: 87 (antisense AGGCGAAGGATGACAAAGGGAA; locked nucleic acid oligonucleotide, pattern not given here)", "values": [{"measurement": "hnRNP A/B levels", "setting": "miR-211", "value": "increased"}, {"measurement": "hnRNP A/B levels", "setting": "miR-211; listed as locked nucleic acid complementary oligonucleotide", "value": "increases"}]}
{"molecule": "C[N+](C)(C)CCOC(N)=O", "note": "[carbachol]", "values": [{"measurement": "expression of hnRNP A/B", "setting": "hnRNP A/B", "value": "increased"}]}
{"molecule": "CC[C@@H]1C(=O)OC[C@@H]1Cc1cncn1C", "note": "[muscarinic agonist, pilocarpine]", "values": [{"measurement": "levels of miRNA-132", "setting": "miRNA-132", "value": "increased"}, {"measurement": "levels of miRNA-211", "setting": "miRNA-211", "value": "reduced"}]}
